Target: MCH receptor (Homo sapiens, UniProt Q99705)
Test: High throughput functional screening FLIPR/FDSS6000: inhibition of MCH-evoked intracellular Ca2+ changes
Format: cell-based
Settings: class by percent of control at 10^-7 M or IC50
Outline: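 In a kinetic calcium-flux format, compounds were tested at various concentrations against 50 nM MCH. Fluo4-loaded cells expressing a constitutively active, non-endogenous receptor were imaged at 488/530 nm for 290 s after agonist addition.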

Structure (SMILES)	class
CN(C)c1nc(N[C@H]2CC[C@@H](CNC(=S)Nc3ccccc3Br)CC2)nc2ccccc12 [compound 625]	3 (Class 3: The value of percent of control at 10^−7 M was more than 60% or the value of IC50 was more than 200 nM.)
CN(C)c1nc(N[C@H]2CC[C@@H](CNC(=S)Nc3ccc(C(F)(F)F)cc3)CC2)nc2ccccc12 [compound 655]	3 (Class 3: The value of percent of control at 10^−7 M was more than 60% or the value of IC50 was more than 200 nM.)
CN(C)c1nc(N[C@H]2CC[C@@H](CNC(=O)Nc3c(F)cc(Br)cc3F)CC2)nc2ccccc12 [compound 542, N-(4-bromo-2,6-difluorophenyl)-N′-[(cis-4-{[4-(dimethylamino)quinazolin-2-yl]amino}cyclohexyl)methyl]urea]	1 (Class 1: The value of percent of control at 10^−7 M was less than 40% or the value of IC50 was less than 50 nM.)
CN(C)c1nc(N[C@H]2CC[C@@H](CNC(=S)Nc3cccc(I)c3)CC2)nc2ccccc12 [compound 651]	3 (Class 3: The value of percent of control at 10^−7 M was more than 60% or the value of IC50 was more than 200 nM.)
CN(C)c1nc(N[C@H]2CC[C@@H](NC(=S)NCC3CC3)CC2)nc2ccccc12 [compound 379]	3 (Class 3: The value of percent of control at 10^−7 M was more than 60% or the value of IC50 was more than 200 nM.)
CC(C)c1ccc(NC(=S)NC[C@H]2CC[C@@H](Nc3nc(N(C)C)c4ccccc4n3)CC2)c(Br)c1 [compound 784]	3 (Class 3: The value of percent of control at 10^−7 M was more than 60% or the value of IC50 was more than 200 nM.)
CCc1ccc(NC(=O)NC[C@H]2CC[C@@H](Nc3nc(N(C)C)c4ccccc4n3)CC2)cc1 [compound 432, N-[(cis-4-{[4-(dimethylamino)quinazolin-2-yl]amino}cyclohexyl)methyl]-N′-(4-ethylphenyl)urea]	2 (Class 2: The value of percent of control at 10^−7 M was from 40% to 60% or the value of IC50 was from 50 nM to 200 nM.)
CN(C)c1nc(N[C@H]2CC[C@@H](CNC(=O)Nc3cc(Cl)cc(Cl)c3)CC2)nc2ccccc12 [compound 424, N-(3,5-dichlorophenyl)-N′-[(cis-4-{[4-(dimethylamino)quinazolin-2-yl]amino}cyclohexyl)methyl]urea]	1 (Class 1: The value of percent of control at 10^−7 M was less than 40% or the value of IC50 was less than 50 nM.)
CN(C)c1nc(N[C@H]2CC[C@@H](CNC(=O)Nc3ccc(C(C)(C)C)cc3)CC2)nc2ccccc12 [compound 765]	3 (Class 3: The value of percent of control at 10^−7 M was more than 60% or the value of IC50 was more than 200 nM.)
CN(C)c1nc(N[C@H]2CC[C@@H](CNC(=O)Nc3ccc4c(c3)OCO4)CC2)nc2ccccc12 [compound 519]	3 (Class 3: The value of percent of control at 10^−7 M was more than 60% or the value of IC50 was more than 200 nM.)
CCOc1ccc(NC(=O)NC[C@H]2CC[C@@H](Nc3nc(N(C)C)c4ccccc4n3)CC2)cc1 [compound 550]	3 (Class 3: The value of percent of control at 10^−7 M was more than 60% or the value of IC50 was more than 200 nM.)
CN(C)c1nc(N[C@H]2CC[C@@H](NC(=S)NC3CCCCCC3)CC2)nc2ccccc12 [compound 328, N-cycloheptyl-N′-(cis-4-{[4-(dimethylamino)quinazolin-2-yl]amino}cyclohexyl)thiourea]	2 (Class 2: The value of percent of control at 10^−7 M was from 40% to 60% or the value of IC50 was from 50 nM to 200 nM.)
COc1cc(NC(=O)NC[C@H]2CC[C@@H](Nc3nc(N(C)C)c4ccccc4n3)CC2)cc(OC)c1 [compound 525]	2 (Class 2: The value of percent of control at 10^−7 M was from 40% to 60% or the value of IC50 was from 50 nM to 200 nM.)
CN(C)c1nc(N[C@H]2CC[C@@H](CNC(=O)Nc3ccc4c(c3)OCCO4)CC2)nc2ccccc12 [compound 758]	3 (Class 3: The value of percent of control at 10^−7 M was more than 60% or the value of IC50 was more than 200 nM.)
CN(C)c1nc(N[C@H]2CC[C@@H](CNC(=O)NC3CCCC3)CC2)nc2ccccc12 [compound 572, N-cyclopentyl-N′-[(cis-4-{[4-(dimethylamino)quinazolin-2-yl]amino}cyclohexyl)methyl]urea]	2 (Class 2: The value of percent of control at 10^−7 M was from 40% to 60% or the value of IC50 was from 50 nM to 200 nM.)
CCc1ccccc1NC(=O)NC[C@H]1CC[C@@H](Nc2nc(N(C)C)c3ccccc3n2)CC1 [compound 494, N-[(cis-4-{[4-(dimethylamino)quinazolin-2-yl]amino}cyclohexyl)methyl]-N′-(2-ethylphenyl)urea]	1 (Class 1: The value of percent of control at 10^−7 M was less than 40% or the value of IC50 was less than 50 nM.)

Same assay, conditions: class by percent of control at 10^-7 M or by IC50; read-out: class

IC50	Structure (SMILES)
50 to 200 nM	CN(C)c1nc(N[C@H]2CC[C@@H](CNC(=O)OCc3ccccc3Cl)CC2)nc2ccccc12 [compound 883]
> 200 nM	CN(C)c1nc(N[C@H]2CC[C@@H](NC(=O)NC(=O)c3ccccc3)CC2)nc2ccccc12 [compound 7]
> 200 nM	CN(C)c1nc(N[C@H]2CC[C@@H](NC(=S)NC(C)(C)C)CC2)nc2ccccc12 [compound 199]
50 to 200 nM	CN(C)c1nc(N[C@H]2CC[C@@H](NC(=S)Nc3ccc([N+](=O)[O-])cc3)CC2)nc2ccccc12 [compound 189]
< 50 nM	Cc1cc(C)c(NC(=O)N[C@H]2CC[C@@H](Nc3nc(N(C)C)c4ccccc4n3)CC2)c(C)c1 [compound 58, N-(cis-4-{[4-(dimethylamino)quinazolin-2-yl]amino}cyclohexyl)-N′-mesitylurea]
50 to 200 nM	CN(C)c1nc(N[C@H]2CC[C@@H](NC(=O)Nc3ccc(F)c(Cl)c3)CC2)nc2ccccc12 [compound 130]
< 50 nM	COc1cc(NC(=S)N[C@H]2CC[C@@H](Nc3nc(N(C)C)c4ccccc4n3)CC2)cc(OC)c1OC [compound 195, N-(cis-4-{[4-(dimethylamino)quinazolin-2-yl]amino}cyclohexyl)-N′-(3,4,5-trimethoxyphenyl)thiourea]
> 200 nM	CN(C)c1nc(N[C@H]2CC[C@@H](CNC(=S)NCCCN3CCOCC3)CC2)nc2ccccc12 [compound 810]

Same assay, conditions: class by percent of control at 10^−7 M or by IC50; read-out: class

IC50	Structure (SMILES)
< 50 nM	CN(C)c1nc(N[C@H]2CC[C@@H](C(=O)NCc3cccc(OC(F)(F)F)c3)CC2)nc2ccccc12 [Example 1186, cis-4-{[4-(dimethylamino)quinazolin-2-yl)amino}-N-[3-(trifluoromethoxy)benzyl]cyclohexanecarboxamide]
< 50 nM	CN(C)c1nc(N[C@H]2CC[C@@H](NC(=O)c3cccnc3Oc3ccc(F)c(F)c3)CC2)nc2ccccc12 [Example 1038, 2-(3,4-difluorophenoxy)-N-(cis-4-{[4-(dimethylamino)quinazolin-2-yl]amino}cyclohexyl)nicotinamide]
< 50 nM	CN(C)c1nc(N[C@H]2CC[C@@H](NC(=O)c3ccc(F)c(F)c3)CC2)nc2cc(F)c(F)cc12 [Example 1209, N-(cis-4-{[4-(dimethylamino)-6,7-difluoroquinazolin-2-yl]amino}cyclohexyl)-3,4-difluorobenzamide]
< 50 nM	CN(C)c1nc(N[C@H]2CC[C@@H](C(=O)NCc3cccc(OC(F)F)c3)CC2)nc2ccccc12 [Example 1185, cis-N-[3-(difluoromethoxy)benzyl]-4-{[4-(dimethylamino)quinazolin-2-yl]amino}cyclohexanecarboxamide]
